According to ChEMBL document CHEMBL1201862, “PubChem BioAssay data set” (2004):
Calls of active or inactive are those of the source.

What was measured:
[1] = molecular target: Beta-2 adrenergic receptor (Homo sapiens, UniProt P07550); assay: beta2AR agonists driving receptor internalization, dose response, cell-based, FAP fluorogen, flow cytometry, cherry pick 1 (AID 588763); type: functional
Beta-galactosidase = Beta-galactosidase (Escherichia coli, UniProt Q8VNN2); assay: PubChem AID 485352; type: functional
Beta-galactosidase, sequence (Q8VNN2 whole entry): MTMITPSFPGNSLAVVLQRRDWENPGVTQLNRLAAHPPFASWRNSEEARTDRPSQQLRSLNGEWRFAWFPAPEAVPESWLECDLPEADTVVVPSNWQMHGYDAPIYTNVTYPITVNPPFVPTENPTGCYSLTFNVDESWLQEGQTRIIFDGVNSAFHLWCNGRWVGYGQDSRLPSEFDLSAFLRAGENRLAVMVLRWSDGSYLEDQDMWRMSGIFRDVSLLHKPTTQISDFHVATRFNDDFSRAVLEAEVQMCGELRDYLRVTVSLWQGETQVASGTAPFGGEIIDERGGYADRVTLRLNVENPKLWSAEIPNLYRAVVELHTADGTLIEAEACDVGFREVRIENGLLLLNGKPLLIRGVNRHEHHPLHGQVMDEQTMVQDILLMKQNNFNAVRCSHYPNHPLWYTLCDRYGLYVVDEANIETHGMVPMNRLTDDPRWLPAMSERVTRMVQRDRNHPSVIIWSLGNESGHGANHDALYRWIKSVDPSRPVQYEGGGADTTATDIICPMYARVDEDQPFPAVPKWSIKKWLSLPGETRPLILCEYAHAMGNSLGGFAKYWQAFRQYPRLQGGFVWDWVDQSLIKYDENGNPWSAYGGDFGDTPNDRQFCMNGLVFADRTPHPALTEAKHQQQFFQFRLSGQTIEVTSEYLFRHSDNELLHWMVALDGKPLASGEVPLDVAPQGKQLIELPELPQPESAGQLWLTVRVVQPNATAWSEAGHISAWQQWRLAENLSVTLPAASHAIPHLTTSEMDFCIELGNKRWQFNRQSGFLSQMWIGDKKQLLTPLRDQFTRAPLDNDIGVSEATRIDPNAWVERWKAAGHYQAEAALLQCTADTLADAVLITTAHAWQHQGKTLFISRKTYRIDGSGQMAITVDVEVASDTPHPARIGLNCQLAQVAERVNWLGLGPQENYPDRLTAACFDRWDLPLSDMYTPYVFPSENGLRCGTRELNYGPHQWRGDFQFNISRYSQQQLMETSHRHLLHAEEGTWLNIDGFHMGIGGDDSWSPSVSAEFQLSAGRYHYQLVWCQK

[2] = molecular target: T1, Short transient receptor potential channel 4 (Mus musculus, UniProt Q9QUQ5); assay: mouse TRPC4 channel activators, dose response, cell-based, HEK293 TRPC4/mu-opioid, Fluo-4 calcium (AID 434937); type: functional
T1 sequence (Q9QUQ5 whole entry): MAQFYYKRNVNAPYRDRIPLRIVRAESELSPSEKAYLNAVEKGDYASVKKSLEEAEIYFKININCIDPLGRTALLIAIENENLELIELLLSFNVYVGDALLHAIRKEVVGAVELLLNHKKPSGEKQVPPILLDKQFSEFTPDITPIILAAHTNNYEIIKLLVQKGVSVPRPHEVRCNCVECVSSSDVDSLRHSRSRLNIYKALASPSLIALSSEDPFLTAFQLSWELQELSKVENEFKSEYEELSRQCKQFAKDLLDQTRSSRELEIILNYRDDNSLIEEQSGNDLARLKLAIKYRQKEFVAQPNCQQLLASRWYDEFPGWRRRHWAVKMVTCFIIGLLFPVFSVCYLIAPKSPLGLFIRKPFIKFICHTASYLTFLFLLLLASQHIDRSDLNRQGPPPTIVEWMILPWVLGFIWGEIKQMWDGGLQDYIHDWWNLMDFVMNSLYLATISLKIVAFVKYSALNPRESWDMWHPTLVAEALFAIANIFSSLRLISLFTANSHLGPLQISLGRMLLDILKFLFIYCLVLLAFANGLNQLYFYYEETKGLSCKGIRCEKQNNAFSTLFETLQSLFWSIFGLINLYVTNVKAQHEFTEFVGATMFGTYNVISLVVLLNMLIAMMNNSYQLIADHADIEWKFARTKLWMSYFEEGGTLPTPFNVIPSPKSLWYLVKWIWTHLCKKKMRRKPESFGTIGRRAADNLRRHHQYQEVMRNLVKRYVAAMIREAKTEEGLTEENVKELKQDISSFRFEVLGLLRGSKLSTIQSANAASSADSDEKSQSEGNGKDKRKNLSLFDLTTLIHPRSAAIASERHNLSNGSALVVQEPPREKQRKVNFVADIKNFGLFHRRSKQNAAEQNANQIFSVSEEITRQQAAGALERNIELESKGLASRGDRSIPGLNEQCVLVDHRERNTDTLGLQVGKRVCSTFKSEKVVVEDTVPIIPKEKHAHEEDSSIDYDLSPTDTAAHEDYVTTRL

[3] = molecular target: Type-1 angiotensin II receptor (Homo sapiens, UniProt P30556); assay: AT1 receptor antagonists, dose response, selectivity assay for APJ receptor antagonist project, cell-based, uHTS hits (AID 463214); type: functional;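 further: antagonist potency against angiotensin II stimulated AT1 response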
Type-1 angiotensin II receptor, sequence (P30556 whole entry): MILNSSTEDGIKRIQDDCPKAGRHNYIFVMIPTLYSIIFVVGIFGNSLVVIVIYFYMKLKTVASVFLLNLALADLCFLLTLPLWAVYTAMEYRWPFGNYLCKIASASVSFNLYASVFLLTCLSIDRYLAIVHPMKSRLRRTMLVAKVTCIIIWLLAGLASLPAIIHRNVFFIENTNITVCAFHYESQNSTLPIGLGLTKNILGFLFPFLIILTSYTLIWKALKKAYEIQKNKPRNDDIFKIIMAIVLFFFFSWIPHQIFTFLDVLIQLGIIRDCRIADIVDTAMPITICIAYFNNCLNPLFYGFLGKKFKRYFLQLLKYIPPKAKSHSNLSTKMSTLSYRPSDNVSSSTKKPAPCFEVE

[4] = inhibitors of intracellular T. cruzi replication, confirmation, NIH3T3 host cells, beta-gal luminescence (AID 2044); type: functional, cell-based;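 further: intracellular parasites grown in NIH/3T3 mouse fibroblasts as host cells; luminescent beta-galactosidase reporter signal from transgenic T. cruzi replicating inside host cells; inhibitors lower the luminescence signal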
INS1 [5] = assay: beta cell apoptosis inhibitors, cytokine rescue, dose response, luminescence, retest (AID 449756); type: functional, cell-based; conditions: Rattus norvegicus;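 further: cell death triggered by IL-1 beta plus TNF-alpha plus IFN-gamma mixture; protective hits raise ATP signal compared with cytokine alone wells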
[6] = cytotoxicity toward NIH3T3 fibroblasts, dose response, counter-screen, cell-based, ATP luminescence, mouse fibroblasts (AID 2010); type: functional;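 further: cells exposed to compound for about 90 hours before reading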
Leucine aminopeptidase = molecular target: T2, Leucine aminopeptidase (Plasmodium falciparum 3D7, UniProt Q8IL11); assay: P. falciparum M17LAP inhibitors, primary screen, biochemical, fluorogenic H-Leu-NHMec substrate, 1536-well (AID 1619); type: functional
T2 sequence (Q8IL11 whole entry): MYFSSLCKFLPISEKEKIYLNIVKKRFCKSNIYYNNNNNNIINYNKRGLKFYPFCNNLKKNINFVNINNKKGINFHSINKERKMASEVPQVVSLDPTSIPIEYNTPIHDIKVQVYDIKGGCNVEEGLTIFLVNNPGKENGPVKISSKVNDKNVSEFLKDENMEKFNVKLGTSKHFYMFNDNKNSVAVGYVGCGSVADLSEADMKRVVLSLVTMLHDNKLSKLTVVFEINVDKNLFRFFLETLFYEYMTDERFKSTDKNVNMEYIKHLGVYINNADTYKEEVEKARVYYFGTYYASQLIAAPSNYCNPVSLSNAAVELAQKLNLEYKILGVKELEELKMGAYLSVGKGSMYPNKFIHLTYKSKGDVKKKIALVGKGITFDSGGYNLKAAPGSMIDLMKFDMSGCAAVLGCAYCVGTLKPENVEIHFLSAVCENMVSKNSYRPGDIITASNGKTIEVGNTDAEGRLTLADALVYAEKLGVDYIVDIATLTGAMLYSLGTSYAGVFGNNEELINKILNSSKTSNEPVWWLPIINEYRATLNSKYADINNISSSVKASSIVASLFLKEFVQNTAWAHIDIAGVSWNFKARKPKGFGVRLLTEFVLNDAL

[7] = Luminescence Cell-Based Dose Response HTS to Identify Inhibitors of 5'UTR Stem-Loop Driven Prion Protein mRNA Translation in H4 Neuroglioblastoma Cells. [Related pubchem assays: 1827 (Project Summary), 1813 (Primary HTS)]; type: functional
[8] = molecular target: Apoptotic protease-activating factor 1 (Homo sapiens, UniProt O14727); type: functional
Apoptotic protease-activating factor 1, sequence (O14727 whole entry): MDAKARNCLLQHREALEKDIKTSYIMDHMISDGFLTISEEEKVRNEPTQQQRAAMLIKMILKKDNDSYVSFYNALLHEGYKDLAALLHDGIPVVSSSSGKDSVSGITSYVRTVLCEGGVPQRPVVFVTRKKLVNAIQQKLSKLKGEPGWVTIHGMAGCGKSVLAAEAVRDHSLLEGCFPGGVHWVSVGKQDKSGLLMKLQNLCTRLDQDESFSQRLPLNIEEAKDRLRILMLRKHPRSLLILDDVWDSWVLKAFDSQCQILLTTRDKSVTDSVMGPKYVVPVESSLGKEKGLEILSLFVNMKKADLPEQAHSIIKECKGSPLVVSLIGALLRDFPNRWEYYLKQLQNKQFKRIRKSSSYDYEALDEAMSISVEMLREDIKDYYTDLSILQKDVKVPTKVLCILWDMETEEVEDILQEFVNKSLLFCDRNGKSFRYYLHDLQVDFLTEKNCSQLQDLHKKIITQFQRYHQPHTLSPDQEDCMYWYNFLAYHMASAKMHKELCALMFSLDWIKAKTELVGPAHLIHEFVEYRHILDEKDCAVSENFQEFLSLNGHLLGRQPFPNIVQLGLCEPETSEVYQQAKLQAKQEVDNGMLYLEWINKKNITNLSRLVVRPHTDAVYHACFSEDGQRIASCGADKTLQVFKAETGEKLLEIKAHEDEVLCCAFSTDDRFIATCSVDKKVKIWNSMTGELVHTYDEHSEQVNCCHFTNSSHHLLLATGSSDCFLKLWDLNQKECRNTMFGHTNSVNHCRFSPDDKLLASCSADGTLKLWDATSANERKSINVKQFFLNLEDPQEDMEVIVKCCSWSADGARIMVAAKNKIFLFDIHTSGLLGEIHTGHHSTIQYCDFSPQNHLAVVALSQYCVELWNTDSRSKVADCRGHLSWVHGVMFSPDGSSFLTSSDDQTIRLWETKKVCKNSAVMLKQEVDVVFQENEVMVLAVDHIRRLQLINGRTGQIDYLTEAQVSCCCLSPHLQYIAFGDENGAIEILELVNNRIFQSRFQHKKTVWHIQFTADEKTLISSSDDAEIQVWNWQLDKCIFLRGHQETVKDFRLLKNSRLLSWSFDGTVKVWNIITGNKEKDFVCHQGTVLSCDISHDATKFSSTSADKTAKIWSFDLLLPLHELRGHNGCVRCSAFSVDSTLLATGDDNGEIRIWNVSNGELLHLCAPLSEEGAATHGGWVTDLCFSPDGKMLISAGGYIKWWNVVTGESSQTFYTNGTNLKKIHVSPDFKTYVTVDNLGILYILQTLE

[9] = inhibitors of SNCA 5'UTR-driven reporter translation, confirmation, H4 neuroglioma cells, luminescence (AID 1988); type: functional, cell-based
[10] = molecular target: T3, Microphthalmia-associated transcription factor (Homo sapiens, UniProt O75030); assay: TRPM1 promoter luciferase signal decrease, dose response, MITF inhibitor project, cell-based, SK-MEL-5, cherry-picked, set 3 (AID 493073); type: functional
T3 sequence (O75030 whole entry): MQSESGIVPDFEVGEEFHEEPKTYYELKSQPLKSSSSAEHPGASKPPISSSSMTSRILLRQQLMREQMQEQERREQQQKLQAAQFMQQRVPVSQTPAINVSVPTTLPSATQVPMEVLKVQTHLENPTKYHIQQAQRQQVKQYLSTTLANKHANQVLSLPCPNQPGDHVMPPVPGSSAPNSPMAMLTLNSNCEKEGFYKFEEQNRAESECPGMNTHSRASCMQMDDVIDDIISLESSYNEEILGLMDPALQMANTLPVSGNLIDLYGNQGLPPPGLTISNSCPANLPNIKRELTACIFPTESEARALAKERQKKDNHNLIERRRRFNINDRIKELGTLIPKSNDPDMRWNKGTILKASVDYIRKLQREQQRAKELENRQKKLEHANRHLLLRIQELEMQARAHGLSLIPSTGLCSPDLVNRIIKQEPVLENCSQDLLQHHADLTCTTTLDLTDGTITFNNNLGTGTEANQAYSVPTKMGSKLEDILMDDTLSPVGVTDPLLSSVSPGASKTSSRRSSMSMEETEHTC

[11] = inhibitors of firefly luciferase expression or activity, dose response, H4 neuroglioma cells, luminescence (AID 1990); type: functional, cell-based
Paired box protein Pax-8 = Paired box protein Pax-8 (Homo sapiens, UniProt Q06710); assay: inhibitors of PAX8-driven TPO luciferase reporter, dose response, RMG-I cells, cherry-pick (AID 687027); type: functional, cell-based;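 further: luciferase reporter driven by Pax8 target thyroperoxidase promoter measured by SteadyGlo luminescence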
Paired box protein Pax-8, sequence (Q06710 whole entry): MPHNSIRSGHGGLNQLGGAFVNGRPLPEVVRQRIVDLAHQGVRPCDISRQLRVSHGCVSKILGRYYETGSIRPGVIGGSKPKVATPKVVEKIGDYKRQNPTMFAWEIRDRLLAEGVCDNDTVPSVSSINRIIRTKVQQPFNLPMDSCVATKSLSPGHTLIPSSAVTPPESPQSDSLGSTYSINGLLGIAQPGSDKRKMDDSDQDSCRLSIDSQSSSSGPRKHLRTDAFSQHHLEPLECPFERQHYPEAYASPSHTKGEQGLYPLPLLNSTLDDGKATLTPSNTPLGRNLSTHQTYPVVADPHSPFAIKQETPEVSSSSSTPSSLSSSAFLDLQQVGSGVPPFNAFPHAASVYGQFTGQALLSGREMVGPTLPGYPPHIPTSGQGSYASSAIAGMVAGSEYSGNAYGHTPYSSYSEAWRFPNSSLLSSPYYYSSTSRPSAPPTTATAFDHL

[12] = inhibitors of cytokine-induced nitrite release, dose response, cell-based, Griess absorbance, INS-1E, dry powder, set 3 (AID 488870); type: functional; conditions: Rattus norvegicus
INS1 [13] = assay: inhibitors of cytokine-induced nitrite release, dose response, cell-based, Griess absorbance, INS-1E, dry powder, set 2 (AID 488868); type: functional; conditions: Rattus norvegicus
INS1 [14] = assay: protection from cytokine-driven beta-cell apoptosis, dose response, JC-1 fluorescence, INS-1E, dry powder, set 2 (AID 488867); type: functional, cell-based; conditions: Rattus norvegicus
Candida albicans [15] = assay: Candida albicans growth inhibition, agent alone, dose response, counter-screen for reversing antifungal drug resistance, CaCi-2 strain, no fluconazole, dry powder, set 4 (AID 488932); type: functional, organism-based
NIH3T3 = assay: cytotoxicity in NIH-3T3 fibroblasts, dose response, cytotoxicity control for antifungal drug resistance project, cell-based, Alamar Blue, fluconazole, dry powder (AID 488809); type: functional; conditions: Mus musculus
Candida albicans [16] = assay: growth inhibition of resistant C. albicans, dose response, CaCi-8 strain, fluconazole, dry powder, set 4 (AID 488950); type: functional, organism-based
Candida albicans [17] = assay: fluconazole resistance reversal in C. albicans, dose response, CaCi-2 strain, Alamar Blue, dry powder, set 4 (AID 488943); type: functional, organism-based
Candida albicans [18] = assay: growth inhibition of resistant C. albicans, dose response, CaCi-8, fluconazole, Alamar Blue, dry powder (AID 488807); type: functional, organism-based
Hexokinase-1 = Hexokinase-1 (Homo sapiens, UniProt P19367); assay: SAR analysis of small molecule inhibitors of hexokinase domain containing I (HKDC1) in the hexokinase 1 selectivity assay. [Related pubchem assays (depositor defined):AID493160, AID493190]; type: functional
Hexokinase-1, sequence (P19367 whole entry, the tested form may be a part): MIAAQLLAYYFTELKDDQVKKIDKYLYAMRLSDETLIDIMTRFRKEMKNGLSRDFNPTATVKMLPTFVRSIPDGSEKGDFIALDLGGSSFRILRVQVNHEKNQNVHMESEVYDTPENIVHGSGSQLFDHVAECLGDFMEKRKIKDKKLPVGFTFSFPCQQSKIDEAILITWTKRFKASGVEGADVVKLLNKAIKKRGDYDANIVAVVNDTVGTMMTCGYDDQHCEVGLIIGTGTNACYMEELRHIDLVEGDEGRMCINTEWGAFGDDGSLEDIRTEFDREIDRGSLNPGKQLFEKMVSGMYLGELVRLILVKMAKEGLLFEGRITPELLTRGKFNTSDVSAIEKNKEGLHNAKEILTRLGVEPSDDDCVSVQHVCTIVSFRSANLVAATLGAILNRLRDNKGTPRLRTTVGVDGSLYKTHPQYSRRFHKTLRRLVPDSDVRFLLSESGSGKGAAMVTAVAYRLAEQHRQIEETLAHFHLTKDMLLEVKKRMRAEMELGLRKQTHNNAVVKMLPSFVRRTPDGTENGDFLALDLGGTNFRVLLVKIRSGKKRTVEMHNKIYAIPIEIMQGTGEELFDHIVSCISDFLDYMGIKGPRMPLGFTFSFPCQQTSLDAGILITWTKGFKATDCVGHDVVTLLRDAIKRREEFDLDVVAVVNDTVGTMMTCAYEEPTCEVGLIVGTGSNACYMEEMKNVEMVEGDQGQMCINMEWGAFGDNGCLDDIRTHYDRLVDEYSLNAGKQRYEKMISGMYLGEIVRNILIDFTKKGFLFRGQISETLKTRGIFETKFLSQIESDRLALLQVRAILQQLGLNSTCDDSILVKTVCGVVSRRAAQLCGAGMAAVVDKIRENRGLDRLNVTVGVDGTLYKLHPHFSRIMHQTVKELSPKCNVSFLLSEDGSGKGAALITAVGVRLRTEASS

Hexokinase HKDC1 = molecular target: T4, Hexokinase HKDC1 (Homo sapiens, UniProt Q2TB90); assay: SAR analysis of small molecule inhibitors of hexokinase domain containing I (HKDC1). [Related pubchem assays (depositor defined):AID493160, AID493190]; type: functional
T4 sequence (Q2TB90 whole entry): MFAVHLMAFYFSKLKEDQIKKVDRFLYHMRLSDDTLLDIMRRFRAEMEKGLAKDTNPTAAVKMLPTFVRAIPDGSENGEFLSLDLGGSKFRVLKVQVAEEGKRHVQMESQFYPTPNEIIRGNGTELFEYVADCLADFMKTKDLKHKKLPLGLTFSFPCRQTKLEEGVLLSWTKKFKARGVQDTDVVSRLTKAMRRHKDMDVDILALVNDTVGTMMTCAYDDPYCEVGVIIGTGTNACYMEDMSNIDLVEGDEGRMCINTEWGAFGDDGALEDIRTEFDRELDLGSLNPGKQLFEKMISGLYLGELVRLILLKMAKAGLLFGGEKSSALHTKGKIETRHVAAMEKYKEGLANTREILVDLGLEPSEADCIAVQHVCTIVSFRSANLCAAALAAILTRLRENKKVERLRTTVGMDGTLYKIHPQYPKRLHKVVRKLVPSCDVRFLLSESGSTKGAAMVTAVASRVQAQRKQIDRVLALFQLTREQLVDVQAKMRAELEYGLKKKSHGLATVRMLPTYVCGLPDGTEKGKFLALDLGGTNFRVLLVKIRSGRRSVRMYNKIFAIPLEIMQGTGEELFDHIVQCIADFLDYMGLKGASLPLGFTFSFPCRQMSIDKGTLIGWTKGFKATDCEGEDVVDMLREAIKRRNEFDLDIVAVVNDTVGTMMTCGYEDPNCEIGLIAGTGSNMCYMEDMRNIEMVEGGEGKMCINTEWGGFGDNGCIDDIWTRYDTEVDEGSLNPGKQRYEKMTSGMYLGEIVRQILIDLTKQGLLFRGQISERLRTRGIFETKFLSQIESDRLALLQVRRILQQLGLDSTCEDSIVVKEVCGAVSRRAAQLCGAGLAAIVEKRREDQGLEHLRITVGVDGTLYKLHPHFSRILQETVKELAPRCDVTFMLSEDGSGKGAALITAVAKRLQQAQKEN

Beta-2 adrenergic receptor, sequence (P07550 whole entry): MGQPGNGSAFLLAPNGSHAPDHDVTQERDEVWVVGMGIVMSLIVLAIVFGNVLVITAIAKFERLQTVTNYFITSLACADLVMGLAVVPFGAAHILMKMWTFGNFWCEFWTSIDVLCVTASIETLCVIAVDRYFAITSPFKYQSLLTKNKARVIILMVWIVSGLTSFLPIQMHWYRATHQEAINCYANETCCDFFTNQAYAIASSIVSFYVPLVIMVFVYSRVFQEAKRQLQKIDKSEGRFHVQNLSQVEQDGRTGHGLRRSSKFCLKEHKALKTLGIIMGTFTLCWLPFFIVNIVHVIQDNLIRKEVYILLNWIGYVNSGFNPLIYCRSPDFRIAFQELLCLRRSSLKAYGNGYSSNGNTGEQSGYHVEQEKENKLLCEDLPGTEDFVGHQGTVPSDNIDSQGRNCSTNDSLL

Nc1cccc(C#Cc2ccc3c(=O)c4ccccc4oc3c2)c1
EC50 [1]: 0.245 µM (active)

CC(C)(C)c1cc(CCC(=O)NNC(=S)NC(=O)c2ccccc2)cc(C(C)(C)C)c1O
EC50 (Beta-galactosidase): > 40 µM (inactive) | EC50 [2]: 3.35 µM (active) | IC50 [3]: 35.5 µM (not active) | EC50 [4]: 0.382 µM (active) | AC50 (INS1 [5]): 3.99 µM (active) | EC50 [6]: 15.7 µM (active) | IC50 (Leucine aminopeptidase): 32.2 µM (active)

CC(=O)Nc1ccc(S(=O)(=O)NC2=C(N3CCN(C)CC3)C(=O)c3ccccc3C2=O)cc1
EC50 [7]: > 120 µM (not active) | IC50 [8]: 29.7 µM (active) | EC50 [9]: 11.1 µM (active) | AC50 [10]: 3.65 µM (active) | EC50 [11]: 15.6 µM (active) | AC50 (INS1 [5]): 3.99 µM (active)

Cc1ccc(S(=O)(=O)N(C)C[C@H]2Oc3c(NC(=O)Nc4cccc5ccccc45)cccc3C(=O)N([C@@H](C)CO)C[C@@H]2C)cc1
AC50 (Paired box protein Pax-8): 5.94 µM (active) | AC50 [12]: > 195 µM (inactive) | AC50 (INS1 [13]): 45.6 µM (active) | AC50 (INS1 [14]): 38.8 µM (active)

O=C(c1csc2ccccc12)N1CCN(c2ccnc3cc(Cl)ccc23)CC1
AC50 (Candida albicans [15]): 106 µM (active) | AC50 (NIH3T3): 4.47 µM (active) | AC50 (Candida albicans [16]): 1.69 µM (active) | AC50 (Candida albicans [17]): 0.946 µM (active) | AC50 (Candida albicans [18]): 2.72 µM (active)

COc1ccc(/C=C/c2nc3ccccc3c(=O)n2Cc2ccccc2)cc1OC
IC50 (Hexokinase-1): > 80 µM (inactive) | IC50 (Hexokinase HKDC1): > 80 µM (inactive)
